# Experimental data as given in ChEMBL document CHEMBL1201862, “PubChem BioAssay data set” (2004).
# Values joined by “and” are separate entries in the source; they are usually repeats but may differ in a detail not shown here. Identical values can stand only once.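 Step 1: Grow cells in 96-well plates. Step 2: Expose to compound for 48 hours at 5 concentrations. Step 3: Interpolate endpoints linearly; if unreached, use highest concentration. The concentration for 50% growth inhibition is given as GI50.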 Active and inactive are the calls of the source. No stated cut-off is given here; in the data, active = GI50 up to about 1.1 µM and inactive = higher.
# Key:
# Assay in all cases: growth of human tumour cells (NCI), 48 h
# HCT-116 = system: HCT-116
# SK-OV-3 = system: SK-OV-3
# HOP-92 = system: HOP-92
# NCI-H460 = system: NCI-H460
# CCRF-CEM = system: CCRF-CEM
# TK-10 = system: TK-10
# LOX IMVI = system: LOX IMVI
# SF-539 = system: SF-539
# SF-295 = system: SF-295
# KM12 = system: KM12
# M19-MEL = system: M19-MEL
# SK-MEL-28 = system: SK-MEL-28
# OVCAR-4 = system: OVCAR-4
# SN12C = system: SN12C
# SNB-75 = system: SNB-75
# CAKI-1 = system: CAKI-1
# Malme-3M = system: Malme-3M
# K562 = system: K562
# SF-268 = system: SF-268
# HT-29 = system: HT-29
# 786-0 = system: 786-0
# MOLT-4 = system: MOLT-4
# M14 = system: M14
# UACC-62 = system: UACC-62
# HOP-62 = system: HOP-62
# SK-MEL-2 = system: SK-MEL-2
# NCI-H23 = system: NCI-H23
# IGROV-1 = system: IGROV-1
# OVCAR-5 = system: OVCAR-5
# DMS-273 = system: DMS-273
# EKVX = system: EKVX
# OVCAR-8 = system: OVCAR-8
# RXF 393 = system: RXF 393
# SW-620 = system: SW-620
# HCC 2998 = system: HCC 2998
# SNB-78 = system: SNB-78
# SNB-19 = system: SNB-19
# U-251 = system: U-251
# A549 = system: A549
# COLO 205 = system: COLO 205
# OVCAR-3 = system: OVCAR-3
# LXFL 529 = system: LXFL 529
# UO-31 = system: UO-31
# NCI-H522 = system: NCI-H522
# NCI-H226 = system: NCI-H226
# DLD-1 = system: DLD-1
# DMS-114 = system: DMS-114
# XF498 = system: XF498
# SK-MEL-5 = system: SK-MEL-5
# HCT-15 = system: HCT-15
# MDA-MB-435 = system: MDA-MB-435
# RPMI-8226 = system: RPMI-8226
# T47D = system: T47D
# ACHN = system: ACHN
# SR = system: SR
# BT-549 = system: BT-549
# MCF7 = system: MCF7
# A498 = system: A498
# MDA-MB-231 = system: MDA-MB-231
# PC-3 = system: PC-3
# UACC-257 = system: UACC-257
# NCI/ADR-RES = system: NCI/ADR-RES
# DU-145 = system: DU-145
# MDA-N = system: MDA-N
# Hs-578T = system: Hs-578T
# HL-60 = system: HL-60
compound,measurement,setting,value
O=C(n1c2ccccc2c2nnc(S)nc21)C(F)(F)F,GI50,HCT-116,> 100 µM (inactive)
same,GI50,SK-OV-3,> 100 µM (inactive)
same,GI50,HOP-92,> 100 µM (inactive)
same,GI50,NCI-H460,> 100 µM (inactive)
same,GI50,CCRF-CEM,> 100 µM (inactive)
same,GI50,TK-10,0.962 µM (active)
same,GI50,LOX IMVI,> 100 µM (inactive)
same,GI50,SF-539,> 100 µM (inactive)
same,GI50,SF-295,> 100 µM (inactive)
same,GI50,KM12,> 100 µM (inactive)
same,GI50,M19-MEL,> 100 µM (inactive)
same,GI50,SK-MEL-28,60.5 µM (inactive)
same,GI50,OVCAR-4,> 100 µM (inactive)
same,GI50,SN12C,> 100 µM (inactive)
same,GI50,SNB-75,> 100 µM (inactive)
same,GI50,CAKI-1,> 100 µM (inactive)
same,GI50,Malme-3M,> 100 µM (inactive)
same,GI50,K562,> 100 µM (inactive)
same,GI50,SF-268,> 100 µM (inactive)
same,GI50,HT-29,> 100 µM (inactive)
same,GI50,786-0,> 100 µM (inactive)
same,GI50,MOLT-4,> 100 µM (inactive)
same,GI50,M14,> 100 µM (inactive)
same,GI50,UACC-62,> 100 µM (inactive)
same,GI50,HOP-62,> 100 µM (inactive)
same,GI50,SK-MEL-2,> 10 µM (inactive)
same,GI50,NCI-H23,> 100 µM (inactive)
same,GI50,IGROV-1,> 100 µM (inactive)
same,GI50,OVCAR-5,> 100 µM (inactive)
same,GI50,DMS-273,> 100 µM (inactive)
same,GI50,EKVX,> 100 µM (inactive)
same,GI50,OVCAR-8,> 100 µM (inactive)
same,GI50,RXF 393,33.4 µM (inactive)
same,GI50,SW-620,> 100 µM (inactive)
same,GI50,HCC 2998,> 100 µM (inactive)
same,GI50,SNB-78,> 100 µM (inactive)
same,GI50,SNB-19,> 100 µM (inactive)
same,GI50,U-251,> 100 µM (inactive)
same,GI50,A549,> 100 µM (inactive)
same,GI50,COLO 205,> 100 µM (inactive)
same,GI50,OVCAR-3,> 100 µM (inactive)
same,GI50,LXFL 529,> 100 µM (inactive)
same,GI50,UO-31,> 100 µM (inactive)
same,GI50,NCI-H522,> 100 µM (inactive)
same,GI50,NCI-H226,> 100 µM (inactive)
same,GI50,DLD-1,> 100 µM (inactive)
same,GI50,DMS-114,> 100 µM (inactive)
same,GI50,XF498,> 100 µM (inactive)
same,GI50,SK-MEL-5,> 100 µM (inactive)
same,GI50,HCT-15,> 100 µM
COc1ccc(NS(=O)(=O)c2ccc(NC(NC(=O)CC(C)C)(C(F)(F)F)C(F)(F)F)cc2)nn1,GI50,HCT-116,> 100 µM (inactive)
same,GI50,MDA-MB-435,> 100 µM (inactive)
same,GI50,SK-OV-3,> 100 µM (inactive)
same,GI50,HOP-92,> 100 µM (inactive)
same,GI50,NCI-H460,> 100 µM (inactive)
same,GI50,CCRF-CEM,> 100 µM (inactive)
same,GI50,TK-10,> 100 µM (inactive)
same,GI50,LOX IMVI,> 100 µM (inactive)
same,GI50,SF-539,> 100 µM (inactive)
same,GI50,SF-295,> 100 µM (inactive)
same,GI50,KM12,> 100 µM (inactive)
same,GI50,RPMI-8226,> 100 µM (inactive)
same,GI50,SK-MEL-28,> 100 µM (inactive)
same,GI50,T47D,> 100 µM (inactive)
same,GI50,ACHN,> 100 µM (inactive)
same,GI50,OVCAR-4,> 100 µM (inactive)
same,GI50,SN12C,> 100 µM (inactive)
same,GI50,SNB-75,> 100 µM (inactive)
same,GI50,CAKI-1,> 100 µM (inactive)
same,GI50,Malme-3M,> 100 µM (inactive)
same,GI50,K562,> 100 µM (inactive)
same,GI50,SR,> 100 µM (inactive)
same,GI50,BT-549,> 100 µM (inactive)
same,GI50,SF-268,> 100 µM (inactive)
same,GI50,HT-29,> 100 µM (inactive)
same,GI50,786-0,> 100 µM (inactive)
same,GI50,MOLT-4,> 100 µM (inactive)
same,GI50,M14,> 100 µM (inactive)
same,GI50,UACC-62,> 100 µM (inactive)
same,GI50,HOP-62,> 100 µM (inactive)
same,GI50,SK-MEL-2,> 100 µM (inactive)
same,GI50,MCF7,> 100 µM (inactive)
same,GI50,NCI-H23,> 100 µM (inactive)
same,GI50,IGROV-1,> 100 µM (inactive)
same,GI50,A498,> 100 µM (inactive)
same,GI50,OVCAR-5,> 100 µM (inactive)
same,GI50,EKVX,> 100 µM (inactive)
same,GI50,MDA-MB-231,> 100 µM (inactive)
same,GI50,OVCAR-8,> 100 µM (inactive)
same,GI50,RXF 393,> 100 µM (inactive)
same,GI50,PC-3,> 100 µM (inactive)
same,GI50,SW-620,> 100 µM (inactive)
same,GI50,HCC 2998,> 100 µM (inactive)
same,GI50,SNB-19,> 100 µM (inactive)
same,GI50,U-251,> 100 µM (inactive)
same,GI50,A549,> 100 µM (inactive)
same,GI50,UACC-257,> 100 µM (inactive)
same,GI50,NCI/ADR-RES,> 100 µM (inactive)
same,GI50,COLO 205,> 100 µM (inactive)
same,GI50,OVCAR-3,> 100 µM (inactive)
same,GI50,UO-31,> 100 µM (inactive)
same,GI50,NCI-H522,> 100 µM (inactive)
same,GI50,NCI-H226,> 100 µM (inactive)
same,GI50,DU-145,> 100 µM (inactive)
same,GI50,MDA-N,> 100 µM (inactive)
same,GI50,Hs-578T,> 100 µM (inactive)
same,GI50,HL-60,> 100 µM (inactive)
same,GI50,SK-MEL-5,> 100 µM (inactive)
same,GI50,HCT-15,> 100 µM
C=CN1C(=O)OC(c2ccccc2)C1c1ccccc1 (stereo not given),GI50,LOX IMVI,49.1 µM (inactive) and > 78.5 µM (inactive)
same,GI50,SF-539,61.1 µM (inactive) and > 31.6 µM (inactive)
same,GI50,SF-295,> 100 µM (inactive) and > 99.3 µM (inactive)
same,GI50,K562,> 31.6 µM (inactive) and 40.5 µM (inactive)
same,GI50,SR,> 100 µM (inactive)
same,GI50,OVCAR-5,> 100 µM (inactive)
same,GI50,DMS-273,57.4 µM (inactive) and > 31.6 µM (inactive)
same,GI50,SW-620,40.7 µM (inactive) and > 31.6 µM (inactive)
same,GI50,U-251,54.7 µM (inactive) and > 31.6 µM (inactive)
same,GI50,XF498,> 10 µM (inactive)
same,GI50,HL-60,> 31.6 µM (inactive) and 45.2 µM (inactive)
